Earlier results, collected in patent US7829124B2, “Use of Phyllanthus constituents for treating or preventing infections caused by hepatitis B-viruses” (priority 2001, dated 2010).

Tests used:
Bacillus subtilis = settings: 0.1 ml; extract 50 mg/ml, streptomycin 10 mg/ml
Staphylococcus aureus = settings: 0.1 ml; extract 50 mg/ml, streptomycin 10 mg/ml
[1] = test system: CA^2+-dependent protein kinase of the wheat embryo
[2] = test system: CA^2+- and phopholipid-dependent protein kinase C (PKC) of the rat brain
[3] = target: T1, cAMP-dependent protein kinase of the rat liver (Rattus norvegicus, UniProt P27791)
T1 construct: the cAMP-dependent protein kinase of the rat liver; host or cells: rat liver

HBV = settings: chronically infected patients

Compound	inhibition zone (Bacillus subtilis)	inhibition zone (Staphylococcus aureus)	inhibition of CA^2+-dependent protein kinase [1]	inhibition of protein kinase C (PKC) [2]	inhibition of cAMP-dependent protein kinase [3]	cases in which the virus is eliminated from the liver (HBV)	further cases with clearly reduced number of viruses in the blood (HBV)
[H]/N=C(/N)N[C@H]1[C@H](O)[C@@H](O)[C@H](O[C@@H]2O[C@@H](C)[C@](O)(C=O)[C@H]2O[C@@H]2O[C@@H](CO)[C@H](O)[C@@H](O)[C@@H]2NC)[C@@H](N/C(N)=N\[H])[C@@H]1O [streptomycin]	35 mm	35 mm					
O=C1O[C@H]2[C@@H]3OC(=O)c4cc(O)c(O)c(O)c4-c4c(cc(O)c(O)c4O)C(=O)OC[C@H]2O[C@@H](OC(=O)c2cc(O)c(O)c(O)c2)[C@@H]3OC(=O)c2cc(O)c(O)c3c2[C@@H]2C1=CC(=O)[C@](O)(O3)C2(O)O [geraniin]			most effective	most effective	most effective		
interferon α						20-30%	30%
phenazine-derivative of the geraniin			most effective	most effective	most effective		
O=C1OC2C3OC(=O)C4=CC(=O)C5(O)Oc6c(O)c(O)cc(c6C4C5(O)O)C(=O)OC2C(OC(=O)c2cc(O)c(O)c(O)c2)OC3COC(=O)c2cc(O)c(O)c3c2C2C1=CC(=O)C(O)(O3)C2(O)O (stereo not shown) [amariin]			most effective	most effective	most effective		
